Experimental data published in ChEMBL document CHEMBL1155377, “SAR of PXR transactivation in benzimidazole-based IGF-1R kinase inhibitors” (Bioorg Med Chem Lett, 2010).

Tests used:
[1] = tested on: Mus musculus; assay: (§1) AUC in mouse plasma at 20 mg/kg, po; type: ADME, organism-based; set-up: dose 20 mg/kg, route oral; settings: in vivo
[2] = as §1; type: ADME, organism-based; set-up: dose 20 mg/kg, route oral; settings: plasma

SMILES | AUC [1] | AUC [2]
Cc1cc(N2CCOCC2)cc2[nH]c(-c3c(NC[C@@H](O)c4cccc(Cl)c4)cc[nH]c3=O)nc12 | 8.2 µM·h | –
COC(=O)N1CCN(C2CCN(c3cc(C)c4nc(-c5c(NCCn6cc(Cl)cn6)cc[nH]c5=O)[nH]c4c3)CC2)CC1 | – | 52 µM·h
COC(=O)N1CCN(C2CCN(c3cc(C)c4nc(-c5c(NC[C@@H](O)c6cccc(Cl)c6)cc[nH]c5=O)[nH]c4c3)CC2)CC1 | – | 11 µM·h

Continued, values first:

AUC [1] | AUC [2] | SMILES
51 µM·h | – | Cc1cc(N2CCOCC2)cc2[nH]c(-c3c(NCCn4cc(Cl)cn4)cc[nH]c3=O)nc12
90 µM·h | – | Cc1cc(N2CCOCC2)cc2[nH]c(-c3c(NCCc4ncn(C)c4Cl)cc[nH]c3=O)nc12
– | 48 µM·h | COC(=O)N1CCN(C2CCN(c3cc(C)c4nc(-c5c(NCCc6ncn(C)c6Cl)cc[nH]c5=O)[nH]c4c3)CC2)CC1
